Assay results from patent US9889123B2, “Polymorphs of deuterated omega-diphenylurea or salts thereof” (Suzhou Zelgen Biopharmaceuticals Co., Ltd., priority 2012, dated 2018).

Columns and labels:
Format in all cases: physicochemical
[1] = Solubility in solvents (description of the compound)
Excerpt: The compound of formula I, with a molecular formula of C21H13D3ClF3N4O3 and a molecular weight of 467.84, is a white or off-white crystal powder, odorless and tasteless.

[2] = Accelerated stability test; settings: 40° C., 75% RH, 1-6 months
[3] = Drug hygroscopicity test (Chinese Pharmacopoeia 2010 edition, Appendix XIX J); settings: humidistatic dryer (saturated ammonium sulfate) at 25° C.±1° C. for 24 hours
Procedure: Take 4 dry glass weighing bottles with a top (The outer diameter was 60 mm and height was 30 mm). On the day before the test, the bottles was placed in a glass dryer (A saturated ammonium sulfate solution was placed in the lower part thereof) in a thermostatic and humidistatic chamber at 25° C.±1° C. (hereinafter, “a humidistatic dryer at 25° C.±1° C.”). The weighing bottle and its top were placed separately without the top on the bottle. Cover the glass dryer closely.
After each empty weighing bottle together with its top were placed in a humidistatic dryer at 25° C.±1° C. for 24 hours, weigh a set (the weighing bottle+its top) as a unit precisely respectively, recorded as m1. Take a sample appropriately, tile it in a glass weighing bottle weighed at a sample thickness of about 1 mm, and cover the bottle. Precisely weigh the weighing bottle with its top and the sample, recorded as m2. […] Then take off the top of the weighing bottles, and put the bottle and its top in the humidistatic dryer at 25° C.±1° C. for 24 hours.
After each sample were placed in a humidistatic dryer at 25° C.±1° C. for 24 hours, cover the weighing bottles with their tops respectively, and precisely weigh each weighing bottle with its top and the sample at this specific moment, recorded as m3. […]

## [2H]C([2H])([2H])NC(=O)c1cc(Oc2ccc(NC(=O)Nc3ccc(Cl)c(C(F)(F)F)c3)cc2)ccn1 [compound of formula I, 4-(4-{3-[4-chloro-3-(trifluoromethyl)phenyl)-ureido]-phenoxy}-2-(N-1′,1′,1′-trideutero-methyl)picolinamide]
[1]; solvent acetone
  solubility in acetone: slightly soluble
[1]; solvent anhydrous ethanol
  solubility in anhydrous ethanol: slightly soluble
[1]; solvent dimethyl formamide
  solubility in dimethyl formamide: very soluble
[1]; solvent dimethyl sulfoxide
  solubility in dimethyl sulfoxide: very soluble
[1]; solvent glacial acetic acid
  solubility in glacial acetic acid: slightly soluble
[1]; solvent methanol
  solubility in methanol: sparingly soluble
[1]; solvent water
  solubility in water: practically insoluble

## Cc1ccc(S(=O)(=O)O)cc1.[2H]C([2H])([2H])NC(=O)c1cc(Oc2ccc(NC(=O)Nc3ccc(Cl)c(C(F)(F)F)c3)cc2)ccn1 [polymorph I, 1/1 p-toluenesulfonate of 4-(4-{3-[4-chloro-3-(trifluoromethyl)phenyl)-ureido]-phenoxy}-2-(N-1′,1′,1′-trideutero-methyl)picolinamide]
[2]
  stability of crystal form: very stable
[2]; compared to freshly prepared (0 Months)
  purity after accelerated stability test: above 99%
[3]
  hygroscopicity: no hygroscopicity
  weight increase (%): 0%

## CNC(=O)c1cc(Oc2ccc(NC(=O)Nc3ccc(Cl)c(C(F)(F)F)c3)cc2)ccn1.Cc1ccc(S(=O)(=O)O)cc1 [polymorph II, methanol solvate of the 1/1 p-toluenesulfonate of 4-(4-{3-[4-chloro-3-(trifluoromethyl)phenyl)-ureido]-phenoxy}-2-(N-1′,1′,1′-trideutero-methyl)pico linamide]
[2]
  stability of crystal form: very stable

## CCO.Cc1ccc(S(=O)(=O)O)cc1.[2H]C([2H])([2H])NC(=O)c1cc(Oc2ccc(NC(=O)Nc3ccc(Cl)c(C(F)(F)F)c3)cc2)ccn1 [polymorph IV, ethanol solvate of the 1/1 p-toluenesulfonate of 4-(4-{3-[4-chloro-3-(trifluoromethyl)phenyl)-ureido]-phenoxy}-2-(N-1′,1′,1′-trideutero-methyl)pico linamide]
[2]
  stability of crystal form: very stable

## Cc1ccc(S(=O)(=O)O)cc1.[2H]C([2H])([2H])NC(=O)c1cc(Oc2ccc(NC(=O)Nc3ccc(Cl)c(C(F)(F)F)c3)cc2)ccn1.[2H]C([2H])([2H])NC(=O)c1cc(Oc2ccc(NC(=O)Nc3ccc(Cl)c(C(F)(F)F)c3)cc2)ccn1 [polymorph V, 1/2 p-toluenesulfonate of 4-(4-{3-[4-chloro-3-(trifluoromethyl)phenyl)-ureido]-phenoxy}-2-(N-1′,1′,1′-trideutero-methyl)pico linamide]
[2]
  stability of crystal form: very stable

## [2H]C([2H])([2H])NC(=O)c1cc(Oc2ccc(NC(=O)Nc3ccc(Cl)c(C(F)(F)F)c3)cc2)ccn1 [polymorph VI, 4-(4-{3-[4-chloro-3-(trifluoromethyl)phenyl)-ureido]-phenoxy}-2-(N-1′,1′,1′-trideutero-methyl)picolinamide]
[2]
  stability of crystal form: very stable
